The values below come from US20240009223A1, “6-THIO-2'-DEOXYGUANOSINE (6-THIO-DG) RESULTS IN TELOMERASE DEPENDENT TELOMERE DYSFUNCTION AND CELL DEATH IN VARIOUS MODELS OF THERAPY-RESISTANT CANCER CELLS” (The Board of Regents of The University of Texas System, priority 2016, published 2024).

Series [1] concerns A375 cells. As to the kind of experiment: Western blotting of RPPA-identified proteins in A375 cells. Format: cell-based, human. Conditions: 48 and 72 hours. From the text: Western Blotting and Antibodies.
For orientation: In western blotting, separated proteins are transferred to a membrane and probed.

In series [2] the test system is non-small cell lung cancer cell line, A549. Conditions: Mender et al., 2015; cited from earlier work.
The subject of series [3] is 1205Lu xenografts. As to the kind of experiment: 1205Lu xenograft tumor volume. The class given is in vivo, human. Conditions: 1205Lu xenografts in mice; treated for 12 days. As for the experimental part: FIGS. 3A-3E show long-term cell growth assay of 16 BRAF-mutant melanoma cell lines that were treated with 6-thio-dG or PLX4720 at indicated doses for 12 days (FIG. 3A). […] Cells were then harvested and co-stained with PSVue643 and Propidium iodide (PI). The average of 2 biological replicates are representative of 2 independent experiments; SA-β-gal staining of 4 BRAF-mutant melanoma cell lines treated with 6-thio-dG at 5 μM for 9 days (FIG. 3D). […] Melanoma Xenotransplantation and In vivo Studies. 100,000 melanoma cells were harvested from cell culture and re-suspended in culture medium and Matrigel at a 1:1 ratio. Cells were subcutaneously injected into mice, which were treated with indicated inhibitors when the tumor volume reached 100 mm^3. Mice were sacrificed at the end time point and solid tumors were collected. All animal experiments were performed in accordance with Wistar IACUC protocol 112330 in NOD.[…] 1 Wjl/SzJ mice.

The test system of series [4] is 13-456-5-3 xenografts. Nature of the series: 13-456-5-3 xenograft tumor volume. The class given is in vivo, human. As for the experimental part: (§1) Melanoma Xenotransplantation and In vivo Studies. 100,000 melanoma cells were harvested from cell culture and re-suspended in culture medium and Matrigel at a 1:1 ratio. Cells were subcutaneously injected into mice, which were treated with indicated inhibitors when the tumor volume reached 100 mm^3. Mice were sacrificed at the end time point and solid tumors were collected. All animal experiments were performed in accordance with Wistar IACUC protocol 112330 in NOD.[…] 1 Wjl/SzJ mice.
On the technique in general: Xenograft models place foreign cells or tissue in a host animal.

Series [5] deals with 16 BRAF-mutant melanoma cell lines. Nature of the series: Long-term cell growth assay, 16 BRAF-mutant melanoma cell lines (vs PLX4720). Conditions: 9 to 12 days. The class given is cell-based, human. The procedure:
(§2) FIGS. 3A-3E show long-term cell growth assay of 16 BRAF-mutant melanoma cell lines that were treated with 6-thio-dG or PLX4720 at indicated doses for 12 days (FIG. 3A). […] Cells were then harvested and co-stained with PSVue643 and Propidium iodide (PI). The average of 2 biological replicates are representative of 2 independent experiments; SA-β-gal staining of 4 BRAF-mutant melanoma cell lines treated with 6-thio-dG at 5 μM for 9 days (FIG. 3D).
Treatment of BRAF-mutant Melanoma Cells with 6-thio-dG Impairs Cell Viability and Tumor Growth. By investigating BRAF-mutant melanoma cell lines, the efficacy of 6-thio-dG was compared with that of the BRAF inhibitor, PLX4720. Another cohort of 16 BRAF-mutant melanoma cell lines was treated with 6-thio-dG and […] for 9 to 12 days, respectively.

In series [6] the test system is UACC-903 BR xenografts. As to the kind of experiment: UACC-903 BR xenograft tumor volume. The class given is in vivo, human. Particulars: UACC-903 BR xenografts in mice. The procedure: as §1
Series [7] concerns PEO1-CR. Nature of the series: Relative cell viability, PEO1-CR. The class given is cell-based, human. Conditions: 5 days. The procedure:
(§3) Additionally, the efficacy of 6-thio-dG was tested using two human ovarian cancer cell lines, PEO4 and PEO1-CR. PEO4 is a derivative line of BRCA1/2-mutant PEO1 that regains homologous recombination by BRCA reversion mutation. […] Importantly, all three cell lines were sensitive to 6-thio-dG after the 5-day treatment (FIGS. 14H-14J).

The subject of series [8] is normal epidermal melanocytes. Nature of the series: FACS analysis of apoptosis and cell death, normal melanocytes. Format: cell-based. Particulars: 120 hours. The procedure:
Cells were then harvested and co-stained with PSVue643 and Propidium iodide (PI). Representative samples of 2 independent experiments.
(§4) FACS Analysis of Apoptosis and Cell Death. Adherent cells were harvested with 0.05% Trypsin-EDTA, pooled with floating cells and then washed once with 1×DPBS. Cells were then pelleted and stained with PSVue® 643 at 0.5 μM and Propidium iodide at 50 ug/ml diluted in TES buffer for 5 min in the dark. Cells were then immediately subjected to FACS analysis using a BD LSR II flow cytometer and at least 5,000 cells per sample were acquired.
(In general: A flow cytometer gives signals particle by particle.)

In series [9] the test system is LOX-IMVI BR cells. As to the kind of experiment: RPPA of LOX-IMVI BR cells. Particulars: 72 hours. Format: cell-based, human. The text has this:
(§5) Analysis of Gene Expression Microarray Data and Reverse Phase Protein Array (RPPA) Data. The raw data of gene expression microarrays generated from Illumina Chips were normalized, background-corrected and summarized using the R package “lumi”. […] To reduce false positives, the unexpressed probes were removed. The R package “limma” was employed for gene differential expression analysis, followed by multiple test correction by the Benjamini and Hochberg procedure. […] The inventors also conducted GSEA as previously reported. For GSEA, they analyzed gene sets obtained from the Molecular Signatures Database (world-wide-web at broadinstitute.org/gsea/msigdb/). The same differential expression analysis method was applied to RPPA data.

The test system of series [10] is A375^Fucci2 cells. Nature of the series: Time-lapse imaging of cell cycle (Fucci2). Particulars: over 42 hours, data not shown. The class given is cell-based, human.
Series [11] deals with 12 BRAF-mutant melanoma cell lines. Nature of the series: FACS analysis of apoptosis and cell death (PSVue 643/PI), 12 BRAF-mutant melanoma cell lines. Format: cell-based, human. The procedure: as §2, §4
In a time-course experiment, it was shown that the induction of apoptosis started to occur as early as 48 hour post-treatment (FIG. 3C).

In series [12] the test system is AXL, IGF-IRβ and VEGFR in G43 tumors. As to the kind of experiment: RPPA of G43 tumors treated in vivo. Set-up: species or system mouse.
Text: as §5

For series [13], the system named is PEO4. As to the kind of experiment: Relative cell viability, PEO4. The class given is cell-based, human. Conditions: 5 days. The procedure: as §3
Series [14] deals with 15-1761-1-2 xenografts. Nature of the series: 15-1761-1-2 xenograft tumor volume. Format: in vivo, human. The procedure: as §1
In series [15] the test system is 499 xenografts. Nature of the series: 499 xenograft tumor volume. Format: in vivo, mouse. As for the experimental part:
as §1

The test system of series [16] is panel of 12 cancer cell lines of 9 different histological origins. Nature of the series: Long-term cell growth assay (crystal violet), 12 non-melanoma cancer cell lines. Format: cell-based. Particulars: 9-12 days; in most cases. As for the experimental part: FIGS. 1A-1B show long-term cell growth assay of 12 non-melanoma cancer cell lines (FIG. 1A) and 12 BRAF-mutant melanoma cell lines (FIG. 1B) that were treated with 6-thio-dG (6dG) or BIBR 1532 (BIBR) at indicated doses for 9 to 12 days.
Treatment of a Variety of Cancer Cell Lines with Telomerase-directed 6-thio-dG Impairs Cell Viability. […] To further confirm the inhibitory effect of 6-thio-dG, a panel of 12 cancer cell lines of 9 different histological origins was treated with 6-thio-dG for 9-12 days. As the control for 6-thio-dG, a known telomerase inhibitor, BIBR 1532, was also included. In most cases, these cancer cell lines were sensitive to 6-thio-dG administered at a dose of 2.5 μM and higher (FIG. 1A).

Where only a bound is given, the exact number is not on record here.

Regarding `Nc1nc2c(ncn2[C@H]2C[C@H](O)[C@@H](CO)O2)c(=S)[nH]1` [6-thio-dG, 6-thio-2′-deoxyguanosine], in [1], the “RPPA-identified down-regulated proteins, validated by western blotting” value is reported as “inhibited”. For the same molecule, the cell viability entry in series [2] is on record as “inhibited cell viability”. Moreover, the tumor growth result in [3] is reported as “significantly impair tumor growth”. Further, the “anti-tumor activity in xenografts” value in series [4], in [14] and in [15] was “anti-tumor activity” each time. Further, the cell proliferation entry in [5] is recorded as “substantially inhibited cell proliferation”. Moreover, in [5], the “efficacy compared with that of PLX4720” value was “comparable to and in some cases even superior to”. In addition, the “in vivo growth of xenografts” value in [6] is “significantly impaired the in vivo growth”. In addition, the “sensitivity (relative cell viability)” value in series [7] and in series [13] was “sensitive” each time. Also, the “cell viability of normal cells” value in series [8] is given as “did not impair the cell viability”. The “three major signaling pathways (cell cycle, DNA damage response, receptor tyrosine kinase signaling) by RPPA” value in series [9] was “altered”. Further, in [10], the “cell cycle progression (time-lapse imaging)” value is listed as “arrested at the G2/M checkpoint followed by cell death”. For the same molecule, the “apoptosis and cell death (PSVue 643+ cells)” value in series [11] (5 days (120 hours)) was “significantly induced apoptosis and cell death in 9 of 12”. The “sensitivity among all 12 BRAF-mutant melanoma cell lines” value in [11] (A375 melanoma cells, 5 days) is reported as “most sensitive”. The “AXL, IGF-IRβ and VEGFR (RPPA)” value in series [12] is “down-regulated”. Also, the “dose at which the cell lines were sensitive (long-term cell growth)” value in series [16] is at least 2.5 µM.
